Laboratory results as given in patent publication US8840904B2, “Compositions and methods for vaccinating against HSV-2” (priority 2006, dated 2014).
No end group written: not given here.

Legend:
recombinant HLA B*0702 = recombinant HLA B*0702 (Homo sapiens, UniProt P01889); assay: biochemical; type: binding
[1] = test system: CD8^+ T-cells specific for the “majority”; assay: Cross-reactivity of CD8+ T-cells with UL49 AA 49-57 variants; type: cell-based, human

Sequence	IC50 (recombinant HLA B*0702) [nM]	cross-reactivity of majority-specific CD8^+ T-cells [1]
RPRGEVREFL	< 2	–
RPRGKVRFL	–	not cross-reactive
